According to publication PMC9894685, “Abscisic acid agonists suitable for optimizing plant water use” (Frontiers in Plant Science, 2023):
“Also recorded” adds a separate entry of the source. Blank lines part the entries; values can stand above or below the compound they belong to.

Tests used:
RCAR11-ABI2 = test system: T1, RCAR11-ABI2; experiment: In vitro phosphatase assay, ABI2 with RCAR11; type: biochemical, Arabidopsis thaliana; conditions: esterase-treated
T1 construct: 6xHis (N); made in house; host or cells: Escherichia coli BL21
Experimental: Expression, purification, and analysis of RCAR and PP2C proteins were performed essentially as described ([Ruschhaupt et al., 2019]). Briefly, the ABA receptors RCAR1, RACR8, and RCAR11 were expressed with an aminoterminal histidine tag using the pSEVA431_LII_6xHIS::RCAR1/RCAR8/RCAR11. ABA coreceptors were expressed as histidine-tagged fusions with the maltose-binding protein using the pSEVA431_LII_6xHIS::MBP::ABI2/HAB1. All constructs were transformed and expressed in Escherichia coli strain BL21 and purified to homogeneity according to supplier’s instruction (GE Healthcare, Chicago, USA). The receptor assay was performed with 100 nM PP2C and a two-fold molar excess of RCAR. Values are means ± SD of three replicates. […] The maximum inhibition was set to 100% in the figures. The phosphatase activity was measured using 4-methylumbelliferyl-phosphate as a substrate ([Meinhard and Grill, 2001]). The increase in fluorescence was recorded over 25 min with excitation and emission wavelengths at 360 and 460 nm, respectively, using a Synergy 2 plate reader (Bio-Tec, Winooski, USA).

wheat plants = experiment: Foliar administration and thermal imaging of leaf temperature, wheat; type: in vivo, Triticum aestivum; conditions: 100 μM, 24 h after administration
Experimental: (§1) Thermal imaging was carried out as described ([Yang et al., 2016]). An assessment of the efficacy of ABA and CCPs was conducted by using 35-day-old Arabidopsis and 30-day-old wheat plants. Stock solutions (10 mM) of CCPs and ABA dissolved in dimethyl sulfoxide (DMSO) were diluted to the respective ligand concentrations (10, 30, 100 µM) in water containing 0.01% (v/v) Tween 20. Aqueous Tween 20 solutions supplemented with 0.1%, 0.3%, and 1% DMSO served for mock treatments. The solutions were sprayed onto the leaf surface until the run-off of droplets. One day after application (unless otherwise indicated), thermal imaging was conducted using the InfraTec instrument (IR-TCM 384, InfraTec, Dresden, Germany). The leaf temperature of Arabidopsis was determined as the average temperature of all leaves. The leaf temperature of wheat was determined as described ([Yang et al., 2019]).

Arabidopsis plants = experiment: Foliar administration and thermal imaging of leaf temperature (transpiration), Arabidopsis; type: in vivo, Arabidopsis thaliana; conditions: for Leaf temperature increase, activity compared to ABA: 10, 30, 100 µM, one day after application
Experimental: as §1

[1] = test system: Arabidopsis aba2-1 protoplasts; experiment: Transient ABA response in Arabidopsis protoplasts (pRD29B::LUC, RCAR11 and ABI2 effectors); type: cell-based, Arabidopsis thaliana
Experimental: Preparation of Arabidopsis protoplasts, transfection of the effector DNA, and analysis of LUC activity were performed as described ([Tischer et al., 2017]). In essence, 10^5 mesophyll protoplasts from leaves of the ABA deficient mutant aba2-1 ([Schwartz et al., 1997]) were transfected with 4 µg DNA of the pRD29B::LUC construct as an ABA-responsive reporter and 3 µg of p35S::GUS (β-glucuronidase reporter gene) expression cassette as an internal control for normalization. In addition, 3 µg p35S::RCAR11 or the empty vector with the same expression cassette were co-expressed with 0.1 µg p35S::ABI2 effector constructs ([Tischer et al., 2017]), and the ligand-dependent induction of ABA-responsive reporter expression were assessed after incubation at 22°C. The expression of LUC and GUS was determined 18 h after transfection and ligand administration.

LC-MS log p = type: physicochemical
Experimental: Cyano cyclopropyl ABA analogs were provided by Bayer (Division Crop Science, Höchst, Germany). All CCPs, except CCP8, were synthesized as described ([Frackenpohl et al., 2018]). For the synthesis of CCP8, ethyl-(2Z)-6-(1-cyanocyclopropyl)-3-ethyl-6-hydroxy-7-methyloct-2-en-4-ynoate, copper (I) iodide (7 mg, […]) and bis (triphenylphosphine) palladium (II) chloride (19 mg, 0.03 mmol) were charged under argon, and toluene (3 mL) together with ethyl (2Z)-3-iodopent-2-enoate (233 mg, 0.9 mmol; column chromatography purification of a crude product as described by [Frackenpohl et al., 2018]) were added at room temperature. After stirring for 10 min, 1-(3-hydroxy-4-methylpent-1-yn-3-yl) cyclopropanecarbonitrile (150 mg, 0.9 mmol; synthesis as describe by [Frackenpohl et al., 2018]) dissolved in toluene (3 mL) and diisopropylamine (0.4 mL, 2.8 mmol) were added. The resulting reaction mixture was stirred for 3 h prior to addition of water. The aqueous phase was extracted repeatedly with dichloromethane. The combined organic phases were dried over magnesium sulphate, filtered, and concentrated under reduced pressure. […]

[2] = target: ABI2 (Arabidopsis thaliana) (UniProt O04719)
Sequence of ABI2 (Arabidopsis thaliana) (O04719 whole entry): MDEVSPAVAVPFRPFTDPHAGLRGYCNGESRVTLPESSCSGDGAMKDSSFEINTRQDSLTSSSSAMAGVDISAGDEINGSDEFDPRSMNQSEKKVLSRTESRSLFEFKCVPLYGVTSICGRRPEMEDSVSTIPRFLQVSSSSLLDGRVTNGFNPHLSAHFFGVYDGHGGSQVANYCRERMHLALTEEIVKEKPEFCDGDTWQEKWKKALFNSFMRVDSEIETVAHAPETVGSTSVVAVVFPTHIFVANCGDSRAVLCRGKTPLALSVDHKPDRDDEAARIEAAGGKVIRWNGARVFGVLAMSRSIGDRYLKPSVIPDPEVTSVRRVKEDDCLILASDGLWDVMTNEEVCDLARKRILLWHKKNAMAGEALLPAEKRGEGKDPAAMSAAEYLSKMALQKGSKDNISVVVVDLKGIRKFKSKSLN

Compound: COC(=O)/C=C(\C=C\C(O)(C1CC1)C1(C#N)CC1)C(F)(F)F (stereo not shown) [CCP5]
Induction of ABA signaling compared to ABA ([1]; aba2-1 protoplasts, 18 h ligand exposure): most active compound | Higher induction rates than ABA ([1]; at different ligand concentrations): up to 60% | Activity with RCAR11-ABI2 receptor complex compared to ABA (RCAR11-ABI2): slightly lower activity than ABA | Concentration for half-maximum inhibition of ABI2 relative to ABA (RCAR11-ABI2; approximately 60% conversion into free acid): twofold | Leaf temperature increase, activity compared to ABA (wheat plants): somewhat less active | Potency in reducing transpiration compared to ABA (Arabidopsis plants; 10 µM): more potent than 100 µM ABA | Leaf temperature increase, activity compared to ABA (Arabidopsis plants): more efficacious than ABA and even exceeding the efficacy of CCP1 to CCP3 | Duration of persistent response (Arabidopsis plants; 10 and 30 µM ligand treatment): 10 days | Potency relative to ABA (Arabidopsis plants; 10 and 30 µM ligand vs 100 µM ABA): more than tenfold; also recorded: more than ten times | Duration of effect relative to ABA (Arabidopsis plants; 10 and 30 µM ligand vs ABA): approximately three times | Efficiency in minimizing transpiration compared to ABA (Arabidopsis plants; foliar application): by an order of magnitude more efficient than ABA | Activity and persistence of minimized transpiration compared to ABA (Arabidopsis plants; single application 100 µM, recorded for 19 days): more active and persistent than ABA

Compound: CCOC(=O)/C=C(\C#CC(O)(C(C)C)C1(C#N)CC1)CC (stereo not shown) [CCP8, ethyl-(2Z)-6-(1-cyanocyclopropyl)-3-ethyl-6-hydroxy-7-methyloct-2-en-4-ynoate]
chromatographic logP (LC-MS log p): 1.39

Compound: RCAR11/PYR1 (from UniProt O49686 1-191) (receptor)
induction of the ABRE-LUC reporter in yeast expressing RCAR11, ABI2, OST1 and ABF2, with 30 µM ABA or CCP1 against mock-treated cells (dose series with ABA, CCP1, CCP2 in Figure 2A) [2]: 8 fold

The next lines start with results.

Activity with RCAR11-ABI2 receptor complex compared to ABA (RCAR11-ABI2): slightly lower activity than ABA
Compound: COC(=O)/C=C(\C=C\C(O)(C(C)C)C1(C#N)CC1)C(F)(F)F (stereo not shown) [CCP4]
Leaf temperature increase, activity compared to ABA (wheat plants): somewhat less active | Leaf temperature increase, activity compared to ABA (Arabidopsis plants): moderately higher activity compared to ABA

Activity with RCAR11-ABI2 receptor complex compared to ABA (RCAR11-ABI2): slightly lower activity than ABA
Compound: COC(=O)/C=C(\C=C\C(O)(C1CCCC1)C1(C#N)CC1)C(F)(F)F (stereo not shown) [CCP6]
Leaf temperature increase, activity compared to ABA (Arabidopsis plants): somewhat lower efficacy
